Test results: patent US20240239786A1, “COMPOSITIONS AND METHODS FOR THE TREATMENT AND PREVENTION OF CANCER” (Yale University, priority 2021, published 2024)

What was measured:
Type in all cases: cell-based
T cells = assay: PBMC T cell co-culture with PEO4 cells activated by CD3-CD28 beads; conditions: PBMCs co-cultured with treated PEO4 cells
From the text: FIG. 23 depicts representative effects of DB4 or triapine on peripheral blood mononuclear cells (PBMCs) containing T cells that were co-cultured with BRCA-mutated PEO1 and BRCA-wild type PEO4 cells and activated by CD3-CD28 beads. PEO1 cells suppressed CD8-positive activated T cells.
FIG. 24 depicts representative effects of DB4 or triapine on peripheral blood mononuclear cells (PBMCs) containing T cells that were co-cultured with BRCA-mutated PEO1 and BRCA-wild type PEO4 cells and activated by CD3-CD28 beads. PEO1 cells increased PD1 and LAG3-positive exhausted T cells.
Further experiments were conducted using PBMCs containing T cells that were co-cultured with PEO1 or PEO4 cells and activated by CD3-CD28 beads (FIG. 23). […] Both DB4 and triapine are RNR inhibitors. As such, although not bound by any particular theory, it was hypothesized that DB4 turned BRCA-wild type EOC into immunogenic “hot” tumors. DB4 promoted an increase in tumor neoantigens and the recruitment of tumor infiltrating lymphocytes (TILs) to tumor stroma, which enabled an effective antitumor response elicited by immune checkpoint inhibitors.

PEO4 cells = assay: Caspase 3/7 assay, PEO4; conditions: 50 μM olaparib, 24 hr
Procedure: (§1) Cells were pre-treated with 30 μM DB4 for 1 hr and then treated with various concentrations of olaparib for 72 hr. Cell survival was determined by MTS cytotoxicity assay. Data are means±SD (N=3-4). […] EOB calculation was used to quantify the synergy of the combination of DB4 and various concentrations of olaparib in PEO1 or PEO4 cells as shown in FIG. 8A. EOB>0, synergism; EOB=0, additivity; EOB<0, antagonism. […] Cells were pre-treated with 30 μM DB4-F for 1 hr and then treated with various concentrations of olaparib for 72 hr. Cell survival was determined by MTS cytotoxicity assay. Data are means±SD (N=3-4). […] EOB calculation was used to quantify the synergy of the combination of DB4-F and various concentrations of olaparib in PEO1 or PEO4 cells as shown in FIG. 8B. […] Cell survival was determined by MTS cytotoxicity assay. […] Caspase 3/7 activity was expressed as RLU per μg/μl protein. […] Caspase 3/7 activity was expressed as RLU per μg/μl protein. […] Cells were treated and caspase 3/7 activity was measured as described in FIG. 8G and FIG. 8H.
(§2) Furthermore, the effects of DB4 on olaparib-induced apoptosis at 24 hr were evaluated. […]
(§3) The assay was performed as described previously (Lin Z P et al., 2018, PLOS One, 13:e0207399). […] Total protein concentration of cell lysates was determined as described above. Caspase 3/7 activity was expressed as luminescence units (RLU) per μg/μL protein for each sample.

PEO1 cells = assay: Caspase 3/7 assay, PEO1; conditions: 50 μM olaparib, 24 hr
Procedure: as §1, §2, §3

SMILES | T cell activation and exhaustion in co-culture with drug-treated PEO4 cells (T cells) | effect on olaparib-induced caspase 3/7 activity (PEO4 cells; DB4 starting at 7.5 μM) | effect on olaparib-induced caspase 3/7 activity (PEO1 cells) | caspase 3/7 activity, olaparib alone (PEO4 cells) | caspase 3/7 activity, olaparib alone (PEO1 cells)
C=CCn1c(SCc2cccc(Cl)c2)nnc1C1CCN(Cc2nc3ccccc3s2)CC1 [DB4, 2-[(4-{4-allyl-5-[(3-chlorobenzyl)thio]-4H-1,2,4-triazol-3-yl}-1-piperidinyl)methyl]-1,3-benzothiazole] | suppressing T cell activation and enhancing T cell exhaustion | markedly augmented | failed to enhance | – | –
O=C(c1cc(Cc2n[nH]c(=O)c3ccccc23)ccc1F)N1CCN(C(=O)C2CC2)CC1 [olaparib, reference compound] | – | – | – | minor increase in caspase 3/7 activity | pronounced increase in caspase 3/7 activity
NC(=S)NN=Cc1ncccc1N [triapine, 3-aminopyridine-2-carboxaldehyde-thiosemicarbazone, reference compound] | suppressing T cell activation and enhancing T cell exhaustion | – | – | – | –
